Assay results taken from ChEMBL document CHEMBL1201862, “PubChem BioAssay data set” (2004).
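A five-concentration, 48-hour dose response in 96-well plates underlies each endpoint, interpolated linearly between surrounding concentrations. GI50 = concentration required for 50% inhibition of growth.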 Activity calls are given as the source filed them. Cut-off read from the data, not from the text of the source: active = GI50 up to about 1.1 µM and inactive = higher.

Tests used:
Test in all cases: NCI tumour cell line growth inhibition, 48 h
DLD-1 = tested on: DLD-1
DMS-114 = tested on: DMS-114
DMS-273 = tested on: DMS-273
HOP-18 = tested on: HOP-18
LXFL 529 = tested on: LXFL 529
M19-MEL = tested on: M19-MEL
RXF 631 = tested on: RXF 631
SNB-78 = tested on: SNB-78
XF498 = tested on: XF498

Measured: GI50

CCC1C(=O)OCc2c1cc1n(c2=O)Cc2ccccc2-1 (configuration not stated)
inactive: DLD-1 > 100 µM | DMS-114 > 100 µM | DMS-273 > 100 µM | HOP-18 > 100 µM | LXFL 529 > 100 µM | M19-MEL > 100 µM | RXF 631 > 100 µM | SNB-78 > 100 µM | XF498 > 100 µM

COc1cc2c3c(c1OC)-c1cc4c(cc1CC3(C#N)N(C(=O)c1ccccc1)CC2)OCO4 (configuration not stated)
inactive: DLD-1 > 55.7 µM | DMS-114 26.5 µM | DMS-273 21.6 µM | HOP-18 21.2 µM | LXFL 529 17.7 µM | M19-MEL 46.8 µM | SNB-78 11.4 µM | XF498 6.25 µM

O=C(NCc1ccccc1)C1C(=O)C(=O)N(Cc2ccccc2)C1=O (configuration not stated)
inactive: DLD-1 > 100 µM | DMS-273 > 100 µM | HOP-18 > 100 µM | LXFL 529 > 100 µM | M19-MEL > 100 µM | RXF 631 > 100 µM | SNB-78 > 100 µM

S=c1[nH]c(=S)c2nnn(-c3ccccc3)c2[nH]1
inactive: DLD-1 > 100 µM | DMS-114 5.97 µM | DMS-273 > 100 µM | LXFL 529 > 100 µM | M19-MEL > 100 µM | XF498 > 100 µM

CCc1cccc(C)c1NC(=O)C1=C(C)NC(C)=C(C(=O)Nc2c(C)cccc2CC)C1c1ccc2c(c1)OCO2
inactive: DLD-1 20.5 µM | DMS-114 16.2 µM | LXFL 529 18.2 µM | M19-MEL 21.4 µM | RXF 631 20 µM | SNB-78 25.8 µM | XF498 15.7 µM

O=Cn1c2ccccc2c2ccccc21
inactive: DLD-1 > 100 µM | DMS-114 > 100 µM | DMS-273 > 100 µM | HOP-18 9.64 µM | LXFL 529 > 100 µM | M19-MEL > 100 µM | SNB-78 > 100 µM | XF498 36.1 µM

Cc1c2c(cc3c1C(=O)C(=O)C1=C3OC[C@@H]1C)C(C)(C)CCC2
inactive: DLD-1 18.7 µM | DMS-114 16.8 µM | DMS-273 14.4 µM | HOP-18 17.1 µM | LXFL 529 16 µM | M19-MEL 2.64 µM | XF498 29.9 µM

Cc1ccc([N+](=O)[O-])c2c(NCCCN(C)C)ccnc12
inactive: SNB-78 55.7 µM

O=c1[nH]c2nc3ccccc3c(=O)n2nc1Cc1ccccc1
inactive: DLD-1 > 100 µM | DMS-114 > 100 µM | DMS-273 > 100 µM | LXFL 529 > 100 µM | SNB-78 > 100 µM

COc1ccc(C2C(Cl)C(=O)N2n2cnc3ccccc3c2=O)cc1 (configuration not stated)
inactive: DLD-1 > 100 µM | DMS-114 72.8 µM | DMS-273 82.4 µM | HOP-18 24.2 µM | LXFL 529 62.1 µM | M19-MEL 76 µM | SNB-78 > 100 µM | XF498 > 100 µM

COc1ccc(C2=Nc3ccccc3SC(C)C2)cc1 (configuration not stated)
inactive: DLD-1 81.8 µM | DMS-114 73.3 µM | DMS-273 78.7 µM | LXFL 529 85.1 µM | M19-MEL 94.6 µM | RXF 631 68.4 µM | SNB-78 > 100 µM

CCCCNC1CCCCC[C@H]1O (some centres not stated)
inactive: DLD-1 > 100 µM | DMS-114 > 100 µM | DMS-273 > 100 µM | HOP-18 > 100 µM | LXFL 529 > 100 µM | M19-MEL > 100 µM | SNB-78 > 100 µM

N#Cc1cccc(C2SCc3nc4ccccc4n32)c1 (configuration not stated)
inactive: DLD-1 65.5 µM | DMS-114 49.4 µM | DMS-273 > 100 µM | LXFL 529 42.1 µM | RXF 631 > 100 µM | SNB-78 > 100 µM | XF498 33.6 µM

CCOc1ccccc1NC(=O)CC1C(=O)Nc2ccccc2[S+]1[O-] (configuration not stated)
inactive: DLD-1 > 100 µM | DMS-114 > 100 µM | DMS-273 66.5 µM | LXFL 529 56.8 µM | M19-MEL > 100 µM | SNB-78 > 100 µM | XF498 44.8 µM

COC(=O)C(=O)C(/C(=N/N)C(=O)Nc1ccccc1C(N)=O)c1nc2ccc([N+](=O)[O-])cc2nc1O (configuration not stated)
inactive: DLD-1 > 100 µM | DMS-114 > 100 µM | DMS-273 > 100 µM | LXFL 529 > 100 µM | M19-MEL > 100 µM | SNB-78 > 100 µM | XF498 > 100 µM

O=C(NCc1ccccc1)c1cc2ccc(O)c(O)c2cn1
inactive: DLD-1 18.5 µM | DMS-114 12.8 µM | DMS-273 17.4 µM | HOP-18 20.7 µM | LXFL 529 16.9 µM | M19-MEL 1.8 µM | SNB-78 18.1 µM | XF498 17.4 µM

C/C(=C\C(C)COCc1ccccc1)[C@H](COCc1ccccc1)OCc1ccccc1 (some centres not stated)
inactive: DMS-114 57.5 µM | DMS-273 > 100 µM | LXFL 529 82 µM | M19-MEL > 100 µM | RXF 631 > 100 µM | SNB-78 > 100 µM | XF498 8.53 µM

Nc1nc2c(ncn2CCOC(c2ccccc2)P(=O)(O)O)c(=O)[nH]1 (configuration not stated)
inactive: DLD-1 > 100 µM | DMS-273 > 100 µM | LXFL 529 > 100 µM | SNB-78 > 100 µM

COc1ccc(OC)c(CCc2cc(OC)c(OC)cc2C)c1
inactive: DLD-1 4.7 µM | DMS-114 5.65 µM | LXFL 529 30.1 µM | M19-MEL 5.51 µM | SNB-78 7.52 µM | XF498 77.6 µM

O=C1OCc2nc3c(c(-c4ccccc4C(F)(F)F)c21)C(=O)OC3
inactive: DLD-1 > 100 µM | DMS-114 > 100 µM | DMS-273 > 100 µM | HOP-18 > 100 µM | LXFL 529 > 100 µM | M19-MEL > 100 µM | SNB-78 > 100 µM

NC(=O)NNC(=O)CCn1[nH]c(=O)c(Cl)c(Cl)c1=O
inactive: DLD-1 > 100 µM | DMS-114 > 100 µM | DMS-273 > 100 µM | HOP-18 > 100 µM | LXFL 529 > 100 µM | M19-MEL > 100 µM | RXF 631 > 100 µM | SNB-78 > 100 µM

CCCCCCCCCCCC[N+]12CC[N+](C)(CC1)CC2
inactive: DLD-1 13.8 µM | DMS-114 19.9 µM | DMS-273 3.69 µM | HOP-18 43.6 µM | LXFL 529 25.7 µM | M19-MEL 19.5 µM | SNB-78 26.4 µM | XF498 20.7 µM

COc1ccccc1C1C(C(=O)Nc2ccccc2)=C(C)NC(C)=C1C(=O)Nc1ccccc1
inactive: DMS-114 41.8 µM | DMS-273 34 µM | HOP-18 > 100 µM | LXFL 529 61.5 µM | M19-MEL 50.6 µM | RXF 631 62.8 µM | SNB-78 > 100 µM | XF498 36.3 µM
